Assay results taken from patent publication US10294202B2, “Pyrrolidinones as herbicides” (FMC Corporation, priority 2013, dated 2019).

Columns and labels:
kochia [1] = assay: Test C pre-/postemergence herbicide test; type: in vivo, Kochia scoparia; conditions: Preemergence
Text: Seeds of plant species selected from blackgrass (Alopecurus myosuroides), ryegrass, Italian (Italian ryegrass, Lolium multiflorum), wheat (winter wheat, Triticum aestivum), galium (catchweed bedstraw, Galium aparine), corn (Zea mays), crabgrass, large (large crabgrass, Digitaria sanguinalis), foxtail, giant (giant foxtail, Setaria faberii), johnsongrass (Sorghum halepense), lambsquarters (Chenopodium album), morningglory (Ipomoea coccinea), nutsedge, yellow (yellow nutsedge, Cyperus esculentus), pigweed (Amaranthus retroflexus), ragweed (common ragweed, Ambrosia elatior), soybean (Glycine max), barnyardgrass (Echinochloa crus-galli), oilseed rape (Brassica napus), waterhemp (common waterhemp, Amaranthus rudis), kochia (Kochia scoparia), oat, wild (wild oat, Avena fatua), surinam grass (Brachiaria decumbens), foxtail, green (green foxtail, Setaria viridis), goosegrass (Eleusine indica), bromegrass, downy (downy bromegrass, Bromus tectorum), nightshade (eastern black nightshade, Solanum ptycanthum), cocklebur (common cocklebur, Xanthium strumarium), cupgrass, woolly (woolly cupgrass, Eriochloa villosa), bermudagrass (Cynodon dactylon), sunflower, (common oilseed sunflower, Helianthus annuus), Russian thistle (Salsola kali) and velvetleaf (Abutilon theophrasti) were planted into a blend of loam soil and sand and treated preemergence with test chemicals formulated in a non-phytotoxic solvent mixture which included a surfactant. At the same time, plants selected from these crop and weed species and also barley (winter barley, Hordeum vulgare), […]), chickweed (common chickweed, Stellaria media), deadnettle (henbit deadnettle, Lamium amplexicaule), and canarygrass (littleseed canarygrass, Phalaris minor) were planted in pots containing Redi-Earth® planting medium (Scotts Company, 14111 Scottslawn Road, Marysville, Ohio 43041) comprising spaghnum peat moss, vermiculite, wetting agent and starter nutrients and treated with postemergence applications of test chemicals formulated in the same manner. Plants ranged in height from 2 to 18 cm (1- to 4-leaf stage) for postemergence treatments. Treated plants and controls were maintained in a greenhouse for 13 to 15 days, after which time all species were compared to controls and visually evaluated. Plant response ratings, summarized in Table C, are based on a scale of 0 to 100 where 0 is no effect and 100 is complete control. A dash (-) response means no test result.

velvetleaf = assay: Test A pre-/postemergence herbicide test; type: in vivo, Abutilon theophrasti; conditions: for Velvetleaf plant response rating: Preemergence, visual rating on 0 to 100 scale (0 no effect, 100 complete control)
How it was run: (§1)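 Seeds sown in loam soil/sand blend received a preemergence directed soil spray of test chemical in non-phytotoxic solvent with surfactant; postemergence plants (2–10 cm, one- to two-leaf stage) were sprayed with the same formulation. After about 10 days in greenhouse, injury was rated visually versus untreated controls, 0 (no effect) to 100 (complete control).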

galium = assay: Test A postemergence herbicide test; type: in vivo, Galium aparine
How it was run: (§2)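 Young potted plants in a loam–sand mix, one- to two-leaf stage and 2–10 cm tall, receive the test chemical postemergence and stay in a greenhouse for approximately 10 days. Injury is then judged by eye against untreated plants, scored 0 (none) to 100 (complete control).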

rice = assay: Test C flooded paddy test; type: in vivo, Oryza sativa; conditions: Flood, scale of 0 to 100 where 0 is no effect and 100 is complete control, 13 to 15 days
How it was run: (§3)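 Plants at the 2-leaf stage in pots flooded to 3 cm were treated by applying compound directly to the paddy water, with depth held throughout. After 13 to 15 days in a greenhouse, response was rated visually against controls on a 0 (no effect) to 100 (complete control) scale.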

kochia [2] = assay: Test A pre-/postemergence herbicide test; type: in vivo, Kochia scoparia
How it was run: as §1

ragweed = assay: Test A pre-/postemergence herbicide test; type: in vivo, Ambrosia elatior
How it was run: as §1

ducksalad = assay: Test C flooded paddy test; type: in vivo, Heteranthera limosa; conditions: Flood, scale of 0 to 100 where 0 is no effect and 100 is complete control, 13 to 15 days
How it was run: as §3

ryegrass, Italian = assay: Test A pre-/postemergence herbicide test; type: in vivo, Lolium multiflorum
How it was run: as §1

barnyardgrass = assay: Test C flooded paddy test; type: in vivo, Echinochloa crus-galli; conditions: Flood, scale of 0 to 100 where 0 is no effect and 100 is complete control, 13 to 15 days
How it was run: as §3

sedge, umbrella = assay: Test C flooded paddy test; type: in vivo, Cyperus difformis; conditions: Flood, scale of 0 to 100 where 0 is no effect and 100 is complete control, 13 to 15 days
How it was run: as §3

blackgrass = assay: Test A postemergence herbicide test; type: in vivo, Alopecurus myosuroides
How it was run: as §2

[3] = 125 g ai/ha, scale 0 to 100 (0 no effect, 100 complete control)
[4] = Postemergence, 125 g ai/ha, 0 to 100 scale, 0 no effect, 100 complete control
[5] = Postemergence, 500 g ai/ha, 0 to 100 scale (0 no effect, 100 complete control)
[6] = preemergence, 500 g ai/ha, 0 to 100 scale
[7] = 125 g ai/ha, visual rating on 0 to 100 scale (0 no effect, 100 complete control), approx. 10 days
[8] = 500 g ai/ha, 0 to 100 scale (0 no effect, 100 complete control)
[9] = Postemergence, 125 g ai/ha, visual rating on 0 to 100 scale (0 no effect, 100 complete control), approx. 10 days
[10] = Preemergence, 125 g ai/ha, 0 to 100 scale where 0 is no effect and 100 is complete control
[11] = Preemergence, 500 g ai/ha, visual rating on 0 to 100 scale (0 no effect, 100 complete control)

Compound | Plant response rating, Kochia (kochia [1]; 62 g ai/ha, scale 0 to 100) | Plant response rating, Kochia (kochia [1]; [3]) | Plant response rating, Velvetleaf (velvetleaf; [4]) | Plant response rating, Velvetleaf (velvetleaf; [5]) | Velvetleaf plant response rating (velvetleaf; 125 g ai/ha) | Plant response rating, Velvetleaf (velvetleaf; [6]) | Plant response rating, Galium (galium; [7]) | Plant response rating, Galium (galium; [8]) | Plant response rating, Rice (rice; 31 g ai/ha) | Plant response rating, Rice (rice; 62 g ai/ha) | Plant response rating, Rice (rice; 125 g ai/ha) | Plant response rating, Rice (rice; 250 g ai/ha) | Plant response rating, Kochia (kochia [2]; [9]) | Plant response rating, Kochia (kochia [2]; [5]) | Plant response rating, Kochia (kochia [2]; [10]) | Kochia plant response rating (kochia [2]; [11]) | Plant response rating, Ragweed (ragweed; [9]) | Plant response rating, Ragweed (ragweed; [5]) | Plant response rating, Ragweed (ragweed; [10]) | Ragweed plant response rating (ragweed; [11]) | other results
O=C1NCC(c2ccc(F)c(Cl)c2)C1C(=O)Nc1cccc(F)c1F (centres unmarked) [Compound 59] | 0 | 10 | 0 | 0 | 0 | 0 | – | – | – | – | – | – | – | – | – | – | – | – | – | – | –
O=C1NCC(c2ccc3c(c2)OC(F)(F)O3)C1C(=O)Nc1cccc(F)c1F (centres unmarked) [Compound 62] | 0 | 15 | 0 | 0 | 0 | 0 | – | – | – | – | – | – | – | – | – | – | – | – | – | – | –
O=C1NCC(c2cccc(Br)c2)C1C(=O)Nc1cccc(F)c1F (centres unmarked) [Compound 64] | 0 | 20 | 0 | 30 | 0 | 0 | – | – | – | – | – | – | – | – | – | – | – | – | – | – | –
O=C1NCC(c2cccc(Br)c2)C1C(=O)Nc1ccccc1F (centres unmarked) [Compound 66] | 0 | 10 | 0 | 0 | 0 | 0 | – | – | – | – | – | – | – | – | – | – | – | – | – | – | Kochia plant response rating (kochia [1]; 31 g ai/ha, scale 0 to 100, 0 is no effect and 100 is complete control): 0
Cc1cccc(NC(=O)C2C(=O)NCC2c2cccc(C(F)(F)F)c2)c1 (centres unmarked) [Compound 317] | – | – | – | – | – | – | 0 | 0 | 0 | 0 | 0 | 0 | 0 | 0 | 0 | 0 | 0 | 0 | 0 | 0 | Plant response rating, Ducksalad (ducksalad; 31 g ai/ha): 0; Plant response rating, Ducksalad (ducksalad; 62 g ai/ha): 0; Plant response rating, Ducksalad (ducksalad; 125 g ai/ha): 0; Plant response rating, Ducksalad (ducksalad; 250 g ai/ha): 0; Plant response rating, Ryegrass, Italian (ryegrass, Italian; [9]): 0; Plant response rating, Ryegrass, Italian (ryegrass, Italian; [5]): 0; Plant response rating, Ryegrass, Italian (ryegrass, Italian; [10]): 0; Ryegrass, Italian plant response rating (ryegrass, Italian; [11]): 0; Plant response rating, Barnyardgrass (barnyardgrass; 31 g ai/ha): 0; Plant response rating, Barnyardgrass (barnyardgrass; 62 g ai/ha): 0; Plant response rating, Barnyardgrass (barnyardgrass; 125 g ai/ha): 30; Plant response rating, Barnyardgrass (barnyardgrass; 250 g ai/ha): 30; Plant response rating, Sedge, Umbrella (sedge, umbrella; 31 g ai/ha): 0; Plant response rating, Sedge, Umbrella (sedge, umbrella; 62 g ai/ha): 0; Plant response rating, Sedge, Umbrella (sedge, umbrella; 125 g ai/ha): 0; Plant response rating, Sedge, Umbrella (sedge, umbrella; 250 g ai/ha): 0; Plant response rating, Blackgrass (blackgrass; [7]): 0; Plant response rating, Blackgrass (blackgrass; [8]): 20
O=C1NCC(c2cccc(OC(F)F)c2)C1C(=O)Nc1cccc(F)c1F (centres unmarked) [Compound 324] | – | – | – | – | – | – | 40 | 60 | 0 | 0 | 0 | 0 | 50 | 80 | 70 | 80 | 20 | 50 | 30 | 60 | Plant response rating, Ducksalad (ducksalad; 31 g ai/ha): 40; Plant response rating, Ducksalad (ducksalad; 62 g ai/ha): 70; Plant response rating, Ducksalad (ducksalad; 125 g ai/ha): 95; Plant response rating, Ducksalad (ducksalad; 250 g ai/ha): 100; Plant response rating, Ryegrass, Italian (ryegrass, Italian; [9]): 30; Plant response rating, Ryegrass, Italian (ryegrass, Italian; [5]): 50; Plant response rating, Ryegrass, Italian (ryegrass, Italian; [10]): 30; Ryegrass, Italian plant response rating (ryegrass, Italian; [11]): 40; Plant response rating, Barnyardgrass (barnyardgrass; 31 g ai/ha): 0; Plant response rating, Barnyardgrass (barnyardgrass; 62 g ai/ha): 0; Plant response rating, Barnyardgrass (barnyardgrass; 125 g ai/ha): 60; Plant response rating, Barnyardgrass (barnyardgrass; 250 g ai/ha): 70; Plant response rating, Sedge, Umbrella (sedge, umbrella; 31 g ai/ha): 0; Plant response rating, Sedge, Umbrella (sedge, umbrella; 62 g ai/ha): 0; Plant response rating, Sedge, Umbrella (sedge, umbrella; 125 g ai/ha): 0; Plant response rating, Sedge, Umbrella (sedge, umbrella; 250 g ai/ha): 0; Plant response rating, Blackgrass (blackgrass; [7]): 60; Plant response rating, Blackgrass (blackgrass; [8]): 70
